Measured values as given in patent publication US5138101A, “Recovery of high-boiling aldehydes from rhodium-catalyzed hydroformylation processes” (Eastman Kodak Company, priority 1991, dated 1992).

Test: Rhodium concentration in the extraction solution phase after extraction, with and without sodium carboxylate salt
Format: physicochemical
Conditions: for Rh Conc.: extraction solution phase
Procedure: Each experiment employed an extraction temperature of 50° C., an agitation period of 30 minutes and a phase separation period of 5 minutes followed by sampling of the extraction solution phase. One mL aliquots of the lower, extraction solution phase was sampled for Rh analysis.
The results of these experiments are shown in Table IV wherein Na Conc. and Rh Conc. are the sodium [Na] and rhodium [Rh] concentrations in mg/L in the extraction solution phase. Also set forth in Table IV are the partition coefficients obtained for the C9-enal isomers, C10-dial isomers and the p diisopropylbenzene hydroformylation solvent (H.S.) in each example.
[…] […] The extractions were carried out at 50° C. using 62 mL of each hydroformylation product solution and 50 mL of an extraction mixture consisting of a 3:1 volume ratio of methanol and water.
Each extraction employed an agitation period of 30 minutes and a phase separation period of 5 minutes followed by sampling of the extraction solution phase. One mL aliquots of the lower, extraction solution phase was sampled for Rh analysis. […]

SMILES: [Rh] [Rh, rhodium]
- Rh Conc. in extraction solution phase (Example 31, 50° C., Na 0): 120 mg/L
- Rh Conc. in extraction solution phase (Example 32, Na 82 mg/L as 2-ethylhexanoate): 54 mg/L
- Rh Conc. in extraction solution phase (Example 33, Na 164 mg/L as 2-ethylhexanoate): 37 mg/L
- Rh Conc. in extraction solution phase (Example 34, Na 327 mg/L as 2-ethylhexanoate): 28 mg/L
- Rh Conc. in extraction solution phase (Example 35, Na 653 mg/L as 2-ethylhexanoate): 20 mg/L
- Rh Conc. in extraction solution phase (Example 36, Na 1307 mg/L as 2-ethylhexanoate): 12 mg/L
- Rh Conc. in extraction solution phase (Example 37, 50° C., Na 0): 56 mg/L
- Rh Conc. in extraction solution phase (Example 38, Na 82 mg/L as oleate): 6 mg/L
- Rh Conc. in extraction solution phase (Example 39, Na 164 mg/L as oleate): 5 mg/L
- Rh Conc. in extraction solution phase (Example 40, Na 327 mg/L as oleate): 4 mg/L
- Rh Conc. in extraction solution phase (Example 41, Na 653 mg/L as oleate): 4 mg/L
- Rh Conc. in extraction solution phase (Example 42, Na 1307 mg/L as oleate): 3.6 mg/L
- Rh Conc. in extraction solution phase (Example 43, 50° C., Na 0): 72 mg/L
- Rh Conc. in extraction solution phase (Example 44, Na 82 mg/L as n butyrate): 39 mg/L
- Rh Conc. in extraction solution phase (Example 45, Na 164 mg/L as n butyrate): 32 mg/L
- Rh Conc. in extraction solution phase (Example 46, Na 327 mg/L as n butyrate): 25 mg/L
- Rh Conc. in extraction solution phase (Example 47, Na 653 mg/L as n butyrate): 22 mg/L
- Rh Conc. in extraction solution phase (Example 48, Na 1307 mg/L as n butyrate): 15 mg/L
- Rh Conc. in extraction solution phase (Example 49, methanol/water 37/27 mL, Na 0): 18.6 mg/L
- Rh Conc. in extraction solution phase (Example 50, methanol/water 37/27 mL, Na 100 as oleate): 2.6 mg/L
- Rh Conc. in extraction solution phase (Example 52, Ref. Ex. 1 (BISBI), MeOH:water 3:1, 50° C., Na 0): 120 mg/L
- Rh Conc. in extraction solution phase (Example 53, Ref. Ex. 1 (BISBI), Na 82 mg/L): 54 mg/L
- Rh Conc. in extraction solution phase (Example 54, Ref. Ex. 1 (BISBI), Na 164 mg/L): 37 mg/L
- Rh Conc. in extraction solution phase (Example 55, Ref. Ex. 1 (BISBI), Na 327 mg/L): 28 mg/L
- Rh Conc. in extraction solution phase (Example 56, Ref. Ex. 11 (TCHP), Na 0): 7.6 mg/L
- Rh Conc. in extraction solution phase (Example 57, Ref. Ex. 11 (TCHP), Na 82 mg/L): 5.2 mg/L
- Rh Conc. in extraction solution phase (Example 58, Ref. Ex. 11 (TCHP), Na 164 mg/L): 2.6 mg/L
- Rh Conc. in extraction solution phase (Example 59, Ref. Ex. 11 (TCHP), Na 327 mg/L): 1.4 mg/L
- Rh Conc. in extraction solution phase (Example 60, Ref. Ex. 12 (TBP), Na 0): 6.2 mg/L
- Rh Conc. in extraction solution phase (Example 61, Ref. Ex. 12 (TBP), Na 82 mg/L): 5.4 mg/L
- Rh Conc. in extraction solution phase (Example 62, Ref. Ex. 12 (TBP), Na 164 mg/L): 5.6 mg/L
- Rh Conc. in extraction solution phase (Example 63, Ref. Ex. 12 (TBP), Na 327 mg/L): 5.4 mg/L
- Rh Conc. in extraction solution phase (Example 64, Ref. Ex. 7 (TPP), Na 0): 7.6 mg/L
- Rh Conc. in extraction solution phase (Example 65, Ref. Ex. 7 (TPP), Na 82 mg/L): 2.0 mg/L
- Rh Conc. in extraction solution phase (Example 66, Ref. Ex. 7 (TPP), Na 164 mg/L): 2.2 mg/L
- Rh Conc. in extraction solution phase (Example 67, Ref. Ex. 7 (TPP), Na 327 mg/L): 1.8 mg/L
- Rh Conc. in extraction solution phase (Example 68, Ref. Ex. 13 (TOP), Na 0): 1.2 mg/L
- Rh Conc. in extraction solution phase (Example 69, Ref. Ex. 13 (TOP), Na 82 mg/L): 1.0 mg/L
- Rh Conc. in extraction solution phase (Example 70, Ref. Ex. 13 (TOP), Na 164 mg/L): < 1 mg/L
- Rh Conc. in extraction solution phase (Example 71, Ref. Ex. 13 (TOP), Na 327 mg/L): < 1 mg/L
- Rh Conc. in extraction solution phase (Example 72, Ref. Ex. 26 (BISBI, TPP), Na 0): 30 mg/L
- Rh Conc. in extraction solution phase (Example 73, Ref. Ex. 26 (BISBI, TPP), Na 82 mg/L): 10 mg/L
- Rh Conc. in extraction solution phase (Example 74, Ref. Ex. 26 (BISBI, TPP), Na 164 mg/L): 8.2 mg/L
- Rh Conc. in extraction solution phase (Example 75, Ref. Ex. 26 (BISBI, TPP), Na 327 mg/L): 6.8 mg/L
- Rh Conc. in extraction solution phase (Example 76, Ref. Ex. 27 (BISBI, TCHP), Na 0): 10 mg/L
- Rh Conc. in extraction solution phase (Example 77, Ref. Ex. 27 (BISBI, TCHP), Na 82 mg/L): 1.8 mg/L
- Rh Conc. in extraction solution phase (Example 78, Ref. Ex. 27 (BISBI, TCHP), Na 164 mg/L): 2.8 mg/L
- Rh Conc. (Example 79): < 1 mg [Rh] per liter
- Rh Conc. (Example 80): < 1 mg [Rh] per liter
- Rh Conc. (Example 81): 3.0 mg [Rh] per liter
- Rh Conc. (Example 82): < 1 mg [Rh] per liter
- Rh Conc. (Example 83): 2.0 mg [Rh] per liter
- Rh Conc. (Example 84): < 1 mg [Rh] per liter
- Rh Conc. (Example 85): < 1 mg [Rh] per liter
- Rh Conc. (Example 86): < 1 mg [Rh] per liter
- Rh Conc. (Example 87): 1.2 mg [Rh] per liter
